The CheMixHub viscosity set
“And” between values parts separate entries of the source, which are not always exact repeats. Equal entries are not always repeated. ± gives the uncertainty stated by the source.

Test: xn = mol fraction of the nth substance listed

CCOC(=O)c1ccccc1 + c1ccccc1
298.15 K, 101 kPa
Conditions | viscosity [mPa·s]
x1 = 0.1302 | 0.7244 ± 0.019
x1 = 0.3809 | 1.018 ± 0.027
x1 = 0.522 | 1.2 ± 0.032
x1 = 0.6112 | 1.327 ± 0.035
x1 = 0.7595 | 1.557 ± 0.041
x1 = 0.848 | 1.709 ± 0.045

Cc1cccc([N+](=O)[O-])c1 + CCCCCC
303.15 K, 101.33 kPa
Conditions | viscosity [mPa·s]
x1 = 0.199 | 0.38 ± 0.008
x1 = 0.416 | 0.58 ± 0.01
x1 = 0.591 | 0.77 ± 0.011
x1 = 0.802 | 1.11 ± 0.013

CCCNCCC + CCCCOCCOCCO
viscosity [mPa·s], 100 kPa
Conditions | 298.15 K | 303.15 K | 308.15 K
x2 = 0.05007 | 0.5938 ± 0.15 | 0.5507 ± 0.15 | 0.5178 ± 0.15
x2 = 0.1002 | 0.6906 ± 0.15 | 0.6377 ± 0.15 | 0.5959 ± 0.15
x2 = 0.1502 | 0.8054 ± 0.15 | 0.7394 ± 0.15 | 0.6889 ± 0.15
x2 = 0.2 | 0.9457 ± 0.15 | 0.8562 ± 0.15 | 0.7964 ± 0.15
x2 = 0.3001 | 1.339 ± 0.15 | 1.183 ± 0.15 | 1.093 ± 0.15
x2 = 0.3999 | 1.79 ± 0.15 | 1.571 ± 0.15 | 1.437 ± 0.15
x2 = 0.4999 | 2.311 ± 0.15 | 1.998 ± 0.15 | 1.819 ± 0.15
x2 = 0.5997 | 2.952 ± 0.15 | 2.519 ± 0.15 | 2.248 ± 0.15
x2 = 0.7 | 3.584 ± 0.15 | 3.042 ± 0.15 | 2.71 ± 0.15
x2 = 0.7999 | 4.119 ± 0.15 | 3.507 ± 0.15 | 3.124 ± 0.15
x2 = 0.8998 | 4.617 ± 0.15 | 3.926 ± 0.15 | 3.5 ± 0.15
x2 = 0.9491 | 4.857 ± 0.15 | 4.132 ± 0.15 | 3.683 ± 0.15

CCCNCCC + CCCCCO
viscosity [mPa·s], 101.33 kPa
Conditions | x1 = 0.0952 | x1 = 0.1918 | x1 = 0.2881 | x1 = 0.3825 | x1 = 0.5157 | x1 = 0.616 | x1 = 0.7094 | x1 = 0.8061 | x1 = 0.9023
303.15 K | 2.51 ± 0.029 | 2.185 ± 0.026 | 1.875 ± 0.022 | 1.593 ± 0.019 | 1.244 ± 0.015 | 1.034 ± 0.013 | 0.8687 ± 0.011 | 0.7254 ± 0.0096 | 0.6098 ± 0.0083
313.15 K | 2.051 ± 0.024 | 1.767 ± 0.021 | 1.51 ± 0.018 | 1.281 ± 0.016 | 1.02 ± 0.013 | 0.8452 ± 0.011 | 0.7187 ± 0.0095 | 0.6045 ± 0.0083 | 0.5061 ± 0.0072

CC(C)O + CCCCO
298.15 K, 101 kPa
Conditions | viscosity [mPa·s]
x2 = 0.1026 | 2.057 ± 0.027
x2 = 0.2012 | 2.105 ± 0.028
x2 = 0.302 | 2.145 ± 0.028
x2 = 0.4045 | 2.207 ± 0.029
x2 = 0.5086 | 2.269 ± 0.03
x2 = 0.6002 | 2.327 ± 0.031
x2 = 0.734 | 2.402 ± 0.032
x2 = 0.7964 | 2.437 ± 0.032
x2 = 0.9021 | 2.506 ± 0.033

[Na+].[OH-] + O
Conditions | viscosity
293.15 K, 101.33 kPa, x2 = 0.67 | 96.16 ± 4.2 mPa·s
293.15 K, 101.33 kPa, x2 = 0.8 | 22.24 ± 0.93 mPa·s
293.15 K, 101.33 kPa, x2 = 0.83 | 18.37 ± 0.74 mPa·s
293.15 K, 101.33 kPa, x2 = 0.85 | 9.529 ± 0.39 mPa·s
293.15 K, 101.33 kPa, x2 = 0.86 | 8.225 ± 0.33 mPa·s
293.15 K, 101.33 kPa, x2 = 0.89 | 6.356 ± 0.25 mPa·s
293.15 K, 101.33 kPa, x2 = 0.9 | 4.63 ± 0.19 mPa·s
323.15 K, 101 kPa, x1 = 0.009 | 0.609 ± 0.018 mPa·s
323.15 K, 101 kPa, x1 = 0.026 | 0.745 ± 0.023 mPa·s
323.15 K, 101 kPa, x1 = 0.05 | 1.02 ± 0.03 mPa·s
323.15 K, 101 kPa, x1 = 0.1 | 1.88 ± 0.06 mPa·s and 3.28 ± 0.1 mPa·s
323.15 K, 101 kPa, x1 = 0.18 | 5.04 ± 0.15 mPa·s
323.15 K, 101 kPa, x1 = 0.22 | 7.88 ± 0.23 mPa·s
323.15 K, 101 kPa, x1 = 0.3 | 10.9 ± 0.32 mPa·s

COC(=O)c1ccccc1O + CS(C)=O
303.15 K, 101 kPa
Conditions | viscosity [mPa·s]
x1 = 0.1215 | 1.932 ± 0.022
x1 = 0.1918 | 2.13 ± 0.025
x1 = 0.2697 | 2.186 ± 0.025
x1 = 0.3567 | 2.283 ± 0.026
x1 = 0.5628 | 2.356 ± 0.027
x1 = 0.6882 | 2.38 ± 0.027
x1 = 0.8323 | 2.403 ± 0.028

C1=CCCCC1 + CCCCCC
303.15 K, 101 kPa
Conditions | viscosity [mPa·s]
x1 = 0.1718 | 0.348 ± 0.005
x1 = 0.2792 | 0.365 ± 0.005
x1 = 0.3914 | 0.387 ± 0.005
x1 = 0.5249 | 0.418 ± 0.006
x1 = 0.5946 | 0.438 ± 0.006
x1 = 0.6859 | 0.464 ± 0.006
x1 = 0.8067 | 0.503 ± 0.007
x1 = 0.9032 | 0.536 ± 0.007
